Converted amounts (≈) assume the structure as drawn.
Assays:
[1] = system: H9 (acute lymphoblastic leukemia, ALL); experiment: MTT growth inhibition of leukemia cells, 72 h; type: cell-based, human; conditions: Homo sapiens, MTT
Text: (§1) Leukemia cell lines: leukemia cell lines: K562/adr (drug-resistant, chronic myeloid leukemia, CML), NB4 (acute promyelocytic leukemia, AML), Kasumi-1 (acute myeloid leukemia M2 type, AML-M2), Jurkat (acute lymphoblastic leukemia, ALL), all of which are donated by Cancer Research Institute of Zhejiang University, China; and H9 (acute lymphoblastic leukemia, ALL), which is purchased from China Center for Type Culture Collection (CCTCC).
(§2) Reagents: The standard sample of homoharringtonine (HHT) is purchased from Taihua Natural Plant Pharmaceutical Co., Ltd., Shaanxi, China, the homoharringtonine derivatives of the present invention.
(§3) Obtaining 6000 well-growing leukemia cells and inoculating them into wells of a 96-well cell culture plate. The culture medium is the 1640 cell culture medium containing 10% fetal bovine serum. After adding the homoharringtonine derivatives of different concentrations and mixing uniformly, placing the plate in a carbon dioxide cell incubator (5% CO2) at 37° C. and incubated for 72 hours. Then the viable cell concentration is determined by the MTT method. In this experiment, the cell viability in control group (not treated with any compound) is set as 100%. On such basis, the cell viability (%) after treatment and the 50% inhibiting concentration of the compound for the leukemia cell growth at 72 hours (IC50 value of 72 hours) are calculated.

[2] = system: NB4 (acute promyelocytic leukemia, AML); experiment: MTT growth inhibition of leukemia cells, 72 h; type: cell-based, human; conditions: Homo sapiens, MTT
Text: as §1, §2, §3

[3] = system: Jurkat (acute lymphoblastic leukemia, ALL); experiment: MTT growth inhibition of leukemia cells, 72 h; type: cell-based, human; conditions: Homo sapiens, Jurkat
Text: as §1, §2, §3

[4] = system: Kasumi-1 (acute myeloid leukemia M2 type, AML-M2); experiment: MTT growth inhibition of leukemia cells, 72 h; type: cell-based, human; conditions: for IC50 / IC90: Homo sapiens, Kasumi 1, MTT
Text: as §1, §2, §3

[5] = system: K562/adr (drug-resistant, chronic myeloid leukemia, CML); experiment: MTT growth inhibition of leukemia cells, 72 h; type: cell-based, human; conditions: Homo sapiens, K562/Adr, MTT
Text: as §1, §2, §3

[6] = system: SK-OV-3 (ovarian cancer cell); experiment: MTT growth inhibition of human solid tumor cells, 72 h; type: cell-based; conditions: Homo sapiens, SK-OV-3, MTT
Method: (§4) Human solid tumor cell lines: Hep-2 (laryngeal carcinoma), A549 (human lung cancer), CaES-17 (esophageal cancer cell), PC-3 (prostate cancer), CNE (nasopharyngeal carcinoma cell), and SK-OV-3 (ovarian cancer cell), all of which are purchased from China Center For Type Culture Collection; RKO (human colon adenocarcinoma cell), MGC 803 (human gastric cancer cell), MG63 (osteosarcoma) and U87 MG (malignant glioma cell), all of which are purchased from Fuxiang Bio-tech Co. Ltd., Shanghai, China; PANC-1 (pancreatic cancer), Huh7 (human liver cancer cell), Becap37 (human breast cancer cell), and Hela (human cervical cancer cell), all of which are donated by Cancer Research Institute of Zhejiang University, China.
(§5) Obtaining 4000 well-growing human solid tumor cells and inoculating them into wells of a 96-well cell culture plate. The culture medium is DMEM High Glucose cell culture medium containing 10% fetal bovine serum. The plate is placed in a carbon dioxide cell incubator (5% CO2) at 37° C. and incubated for 24 hours. After adding the homoharringtonine derivatives of different concentration and mixing uniformly, the plate is placed in a carbon dioxide cell incubator (5% CO2) at 37° C. and incubated for 72 hours. Then the viable cell concentration is determined by the MTT method and the cell viability (%) after drug treatment is calculated. In this experiment, the cell viability of control group (not treated with any compound) is set as 100%.

[7] = system: CNE (nasopharyngeal carcinoma cell); experiment: as above; type: cell-based; conditions: Homo sapiens, MTT
Method: as §4, §5

[8] = system: RKO (human colon adenocarcinoma cell); experiment: as above; type: cell-based; conditions: Homo sapiens, MTT
Method: as §4, §5

[9] = system: Hep-2 (laryngeal carcinoma); experiment: as above; type: cell-based; conditions: Homo sapiens, HEp-2
Method: as §4, §5

[10] = system: Hela (human cervical cancer cell); experiment: as above; type: cell-based; conditions: Homo sapiens, HeLa, MTT
Method: as §4, §5

[11] = system: CaES-17 (esophageal cancer cell); experiment: as above; type: cell-based; conditions: Homo sapiens, CaEs17
Method: as §4, §5

[12] = system: U87 MG (malignant glioma cell); experiment: as above; type: cell-based; conditions: Homo sapiens, U-87 MG
Method: as §4, §5

A549 (human lung cancer) = experiment: as above; type: cell-based; conditions: Homo sapiens, A549
Method: as §4, §5

[13] = system: Huh7 (human liver cancer cell); experiment: as above; type: cell-based; conditions: Homo sapiens, Huh-7
Method: as §4, §5

PC-3 (prostate cancer) = experiment: as above; type: cell-based; conditions: Homo sapiens, MTT
Method: as §4, §5

MG63 (osteosarcoma) = experiment: as above; type: cell-based; conditions: Homo sapiens, MG-63, MTT
Method: as §4, §5

[14] = system: Becap37 (human breast cancer cell); experiment: as above; type: cell-based; conditions: Homo sapiens
Method: as §4, §5

[15] = system: MGC 803 (human gastric cancer cell); experiment: as above; type: cell-based; conditions: Homo sapiens, MGC-803
Method: as §4, §5

[16] = system: PANC-1 (pancreatic cancer); experiment: as above; type: cell-based; conditions: Homo sapiens, PANC-1, MTT
Method: as §4, §5

[17] = system: RPMI8226 (multiple myeloma); experiment: MTT growth inhibition of multiple myeloma cells, 72 h; type: cell-based, human; conditions: for IC50 / IC90: Homo sapiens, RPMI-8226, MTT
Method: Multiple myeloma and lymphoma cell lines: RPMI8226 (multiple myeloma), purchased from Fuxiang Bio-tech Co. Ltd., Shanghai, China.
as §3

Q: Which results are given for `COC(=O)C[C@@](CCCC(C)(C)OC(C)=O)(OC(C)=O)C(=O)O[C@@H]1C(OC)=C[C@]23CCCN2CCc2cc4c(cc2[C@H]13)OCO4` [BS-HH-001, 2,6-diacetylhomoharringtonine]?
A: IC50 [1]: 0.02 µg/mL (≈ 0.0318 µM); IC90 [1]: 0.05 µg/mL (≈ 0.0794 µM); IC50 [2]: 0.01 µg/mL (≈ 0.0159 µM); IC90 [2]: 0.022 µg/mL (≈ 0.0349 µM); IC50 [3]: 0.012 µg/mL (≈ 0.0191 µM); IC90 [3]: ≥ 16 µg/mL; IC50 [4]: 0.006 µg/mL (≈ 0.00953 µM); IC90 [4]: 0.021 µg/mL (≈ 0.0333 µM); IC50 [5]: 0.062 µg/mL (≈ 0.0985 µM); IC90 [5]: 1.18 µg/mL (≈ 1.87 µM); IC50 [6]: 0.12 µg/mL (≈ 0.191 µM); IC90 [6]: > 16 µg/mL; IC50 [7]: 0.062 µg/mL (≈ 0.0985 µM); IC90 [7]: > 16 µg/mL; IC50 [8]: 0.007 µg/mL (≈ 0.0111 µM); IC90 [8]: 0.02 µg/mL (≈ 0.0318 µM); IC50 [9]: 0.026 µg/mL (≈ 0.0413 µM); IC90 [9]: > 16 µg/mL; IC50 [10]: 0.026 µg/mL (≈ 0.0413 µM); IC90 [10]: > 16 µg/mL; IC50 [11]: 0.062 µg/mL (≈ 0.0985 µM); IC90 [11]: > 16 µg/mL; IC50 [12]: 0.018 µg/mL (≈ 0.0286 µM); IC90 [12]: 0.11 µg/mL (≈ 0.175 µM); IC50 (A549 (human lung cancer)): 0.03 µg/mL (≈ 0.0476 µM); IC90 (A549 (human lung cancer)): > 16 µg/mL; IC50 [13]: 0.016 µg/mL (≈ 0.0254 µM); IC90 [13]: 0.13 µg/mL (≈ 0.206 µM); IC50 (PC-3 (prostate cancer)): 0.029 µg/mL (≈ 0.0461 µM); IC90 (PC-3 (prostate cancer)): > 16 µg/mL; IC50 (MG63 (osteosarcoma)): 0.02 µg/mL (≈ 0.0318 µM); IC90 (MG63 (osteosarcoma)): 2.4 µg/mL (≈ 3.81 µM); IC50 [14]: 0.015 µg/mL (≈ 0.0238 µM); IC90 [14]: 14 µg/mL (≈ 22.2 µM); IC50 [15]: 0.03 µg/mL (≈ 0.0476 µM); IC90 [15]: 0.66 µg/mL (≈ 1.05 µM); IC50 [16]: 0.036 µg/mL (≈ 0.0572 µM); IC90 [16]: > 16 µg/mL; anti-RPMI8226 (multiple myeloma) effectiveness [17]: particularly effective; IC50 [17]: 0.009 µg/mL (≈ 0.0143 µM); IC90 [17]: 0.12 µg/mL (≈ 0.191 µM)

Q: Which IC50 [1] does the source give for `COC(=O)C[C@](O)(CCCC(C)(C)OC(=O)c1cccnc1Cl)C(=O)O[C@@H]1C(OC)=C[C@]23CCCN2CCc2cc4c(cc2[C@H]13)OCO4` [BS-HH-066] here?
A: 0.003 µg/mL (≈ 0.00438 µM)

Q: What about the IC90 [1] of the same compound?
A: 0.01 µg/mL (≈ 0.0146 µM)

Q: What about the IC50 [2] of the same compound?
A: 0.002 µg/mL (≈ 0.00292 µM)

Q: And the IC90 [2]?
A: 0.004 µg/mL (≈ 0.00584 µM)

Q: What about the IC50 [3] of the same compound?
A: 0.005 µg/mL (≈ 0.0073 µM)

Q: What about the IC90 [3] of the same compound?
A: ≥ 16 µg/mL

Q: What about the IC50 [4] of the same compound?
A: 0.0007 µg/mL (≈ 0.00102 µM)

Q: And the IC90 [4]?
A: 0.002 µg/mL (≈ 0.00292 µM)

Q: And the “improvement of anti-Kasumi-1 activity compared with homoharringtonine” value ([4]; vs HHT)?
A: more than 7 fold

Q: And the IC50 [5]?
A: 0.03 µg/mL (≈ 0.0438 µM)

Q: And the IC90 [5]?
A: 3.18 µg/mL (≈ 4.64 µM)

Q: And the IC50 [6]?
A: 0.051 µg/mL (≈ 0.0744 µM)

Q: What about the IC90 [6] of the same compound?
A: > 16 µg/mL

Q: And the IC50 [7]?
A: 0.03 µg/mL (≈ 0.0438 µM)

Q: What about the IC90 [7] of the same compound?
A: > 16 µg/mL

Q: And the IC50 [8]?
A: 0.003 µg/mL (≈ 0.00438 µM)

Q: What about the IC90 [8] of the same compound?
A: 0.023 µg/mL (≈ 0.0336 µM)

Q: What about the IC50 [9] of the same compound?
A: 0.025 µg/mL (≈ 0.0365 µM)

Q: What about the IC90 [9] of the same compound?
A: > 16 µg/mL

Q: And the IC50 [10]?
A: 0.021 µg/mL (≈ 0.0306 µM)

Q: What about the IC90 [10] of the same compound?
A: 16 µg/mL (≈ 23.4 µM)

Q: And the IC50 [11]?
A: 0.049 µg/mL (≈ 0.0715 µM)

Q: And the IC90 [11]?
A: 16 µg/mL (≈ 23.4 µM)

Q: What about the IC50 [12] of the same compound?
A: 0.007 µg/mL (≈ 0.0102 µM)

Q: And the IC90 [12]?
A: 0.048 µg/mL (≈ 0.0701 µM)

Q: What about the IC50 (A549 (human lung cancer)) of the same compound?
A: 0.03 µg/mL (≈ 0.0438 µM)

Q: What about the IC90 (A549 (human lung cancer)) of the same compound?
A: > 16 µg/mL

Q: And the IC50 [13]?
A: 0.0016 µg/mL (≈ 0.00234 µM)

Q: And the IC90 [13]?
A: 0.023 µg/mL (≈ 0.0336 µM)

Q: And the IC50 (PC-3 (prostate cancer))?
A: 0.1 µg/mL (≈ 0.146 µM)

Q: And the IC90 (PC-3 (prostate cancer))?
A: > 16 µg/mL

Q: What about the IC50 (MG63 (osteosarcoma)) of the same compound?
A: 0.0032 µg/mL (≈ 0.00467 µM)

Q: And the IC90 (MG63 (osteosarcoma))?
A: 0.2 µg/mL (≈ 0.292 µM)

Q: What about the IC50 [14] of the same compound?
A: 0.02 µg/mL (≈ 0.0292 µM)

Q: And the IC90 [14]?
A: 5.63 µg/mL (≈ 8.22 µM)

Q: What about the IC50 [15] of the same compound?
A: 0.005 µg/mL (≈ 0.0073 µM)

Q: And the IC90 [15]?
A: 0.052 µg/mL (≈ 0.0759 µM)

Q: What about the IC50 [16] of the same compound?
A: 0.026 µg/mL (≈ 0.0379 µM)

Q: And the IC90 [16]?
A: > 16 µg/mL

Q: And the IC50 [17]?
A: 0.006 µg/mL (≈ 0.00876 µM)

Q: And the IC90 [17]?
A: 0.033 µg/mL (≈ 0.0482 µM)

From US9428519B2, “Acylated derivative of homoharringtonine, preparation method therefor, and application thereof” (HANGZHOU BENSHENG PHARMACEUTICAL CO., LTD., priority 2011, dated 2016)
